From patent US20170095432A1, “TREPROSTINIL FORMULATIONS” (United Therapeutics Corporation, priority 2014, published 2017)

What was measured:
Type in all cases: physicochemical
[1] = Binding of treprostinil diethanolamine to the 0.45-μm PTFE filters used in the assay
Protocol: A UV absorbance measurement was conducted with an approximate 0.1 mg/mL treprostinil diolamine solution with a Fluostar Omega BMG Labtech UV spectrophotometer from 220 nm to 350 nm to determine the λmax. Two standard curves were established with known concentrations of treprostinil at 228 nm and 270 nm. The time to achieve equilibrium between bound and unbound treprostinil to the IER was determined. One gram of resin was added to 100 mL of 10 mg/mL treprostinil solution. The suspension was stirred for four hours and 1 -mL samples were taken at 30, 60, 90, 120, 180, and 240 minutes. Each sample was filtered through a 0.45-μm PTFE filter, and the resulting solution was assayed by UV spectrophotometry for treprostinil concentration. Complexation experiments were conducted with known concentrations of treprostinil and one gram of resin at ratios of 1:0.5, 1:1, 1:2, and 1:4, resin:treprostinil (w/w). Two resins, PUROLITE™ and DUOLITE™, were evaluated separately. The amount of treprostinil complexed per gram of resin was calculated based on the difference between the initial and final treprostinil concentration. The percent loading efficiency was calculated based on the equation: (1-[unbound treprostinil]/[initial treprostinil]) * 100. […]
(§1) Treprostinil diethanolamine was determined to be stable for 14 days at both ambient and refrigerated environments.

[2] = Stability of treprostinil diethanolamine at ambient and refrigerated environments; settings: 14 days
Protocol: as §1

[3] = Complexation of treprostinil with cholestyramine ion-exchange resins (PUROLITE, DUOLITE); unbound drug assayed by UV at 270 nm
Protocol: A UV absorbance measurement was conducted with an approximate 0.1 mg/mL treprostinil diolamine solution with a Fluostar Omega BMG Labtech UV spectrophotometer from 220 nm to 350 nm to determine the λmax. Two standard curves were established with known concentrations of treprostinil at 228 nm and 270 nm. The time to achieve equilibrium between bound and unbound treprostinil to the IER was determined. One gram of resin was added to 100 mL of 10 mg/mL treprostinil solution. The suspension was stirred for four hours and 1 -mL samples were taken at 30, 60, 90, 120, 180, and 240 minutes. Each sample was filtered through a 0.45-μm PTFE filter, and the resulting solution was assayed by UV spectrophotometry for treprostinil concentration. Complexation experiments were conducted with known concentrations of treprostinil and one gram of resin at ratios of 1:0.5, 1:1, 1:2, and 1:4, resin:treprostinil (w/w). Two resins, PUROLITE™ and DUOLITE™, were evaluated separately. The amount of treprostinil complexed per gram of resin was calculated based on the difference between the initial and final treprostinil concentration. The percent loading efficiency was calculated based on the equation: (1-[unbound treprostinil]/[initial treprostinil]) * 100. Photographs were taken for each resin before and after complexation with treprostinil using a Leica DM IL LED light microscope and Leica DMC2900 microscope camera.
FIGS. 1-6 present the results of experiments. […] FIGS. 2A and 2B show calibration curves for determining a concentration of unbound treprostinil (diethanolamine) based on treprostinil absorbance at 228 nm (2A) and 270 nm (2B). The 270 nm curve was used to calculate all the concentrations in the complexation experiments.

| Compound | binding effect with PTFE filters [1] | stability ([2]; ambient environment) | stability ([2]; refrigerated environment) | loading efficiency (drug bound to the resin) ([3]; lower concentrations of treprostinil diethanolamine) | maximum amount of treprostinil bound ([3]; plateau with increasing concentration of treprostinil diethanolamine, resin:treprostinil ratios 1:0.5 to 1:4 (w/w)) | time to equilibrium between bound and unbound treprostinil to the resins ([3]; stirring, 1 g resin in 100 mL of 10 mg/mL treprostinil solution) |
| --- | --- | --- | --- | --- | --- | --- |
| CCCCC[C@H](O)CC[C@@H]1[C@H]2Cc3cccc(OCC(=O)O)c3C[C@H]2C[C@H]1O.OCCNCCO [Treprostinil diethanolamine] | no binding effect | stable | stable | almost all drug was bound to the resin |  |  |
| CCCCC[C@H](O)CC[C@@H]1[C@H]2Cc3cccc(OCC(=O)O)c3C[C@H]2C[C@H]1O [treprostinil] |  |  |  |  | 1.6 g/g resin | After one hour of stirring |
